# According to paper PMC7265341, “Quantifying CDK inhibitor selectivity in live cells” (Nature Communications, 2020):
# Where two headings read alike, the source gives them in different places.
# Tests used:
# CDK7 = CDK7 (Homo sapiens, UniProt P50613); test: NanoBRET live-cell target engagement, NanoLuc-CDK7 in HEK-293; assay type: binding
# CDK8/Cyclin C = CDK8/Cyclin C (Homo sapiens, UniProt P49336); test: NanoBRET live-cell target engagement, NanoLuc-CDK8/Cyclin C in HEK-293; assay type: binding; conditions: CDK8/C; for inhibition at 10 µM: read-out: Inhibition at 10µM (%)
# CDK11A/Cyclin L2 = biological target: T1, CDK11A/Cyclin L2 (Homo sapiens, UniProt Q9UQ88); test: NanoBRET live-cell target engagement, CDK11A-NanoLuc/Cyclin L2 in HEK-293; assay type: binding; conditions: CDK11a/L2; for inhibition at 10 µM: read-out: Inhibition at 10µM (%)
# T1 sequence (Q9UQ88 1-783): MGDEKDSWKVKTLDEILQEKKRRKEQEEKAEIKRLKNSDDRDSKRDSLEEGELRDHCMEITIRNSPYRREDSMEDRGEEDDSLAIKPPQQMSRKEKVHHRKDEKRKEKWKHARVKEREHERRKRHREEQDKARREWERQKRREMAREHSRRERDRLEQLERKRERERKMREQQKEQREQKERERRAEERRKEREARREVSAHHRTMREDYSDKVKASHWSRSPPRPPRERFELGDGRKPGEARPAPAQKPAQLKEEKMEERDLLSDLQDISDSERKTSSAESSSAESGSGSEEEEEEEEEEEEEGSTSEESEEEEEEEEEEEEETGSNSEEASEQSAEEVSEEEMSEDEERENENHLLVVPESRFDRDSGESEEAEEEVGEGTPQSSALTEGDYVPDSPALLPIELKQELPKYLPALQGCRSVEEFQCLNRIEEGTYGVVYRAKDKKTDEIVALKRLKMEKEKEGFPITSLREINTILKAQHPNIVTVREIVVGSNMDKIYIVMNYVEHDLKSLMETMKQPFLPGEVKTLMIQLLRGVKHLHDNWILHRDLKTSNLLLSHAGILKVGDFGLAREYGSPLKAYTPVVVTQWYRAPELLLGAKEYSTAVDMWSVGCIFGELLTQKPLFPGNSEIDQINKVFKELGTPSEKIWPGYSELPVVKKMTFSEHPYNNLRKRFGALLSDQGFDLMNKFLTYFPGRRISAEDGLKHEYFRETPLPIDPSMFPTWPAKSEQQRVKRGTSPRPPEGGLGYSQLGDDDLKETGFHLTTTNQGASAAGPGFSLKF
# CDK11B/Cyclin L2 = CDK11B/Cyclin L2 (Homo sapiens, UniProt P21127); test: NanoBRET live-cell target engagement, CDK11B-NanoLuc/Cyclin L2 in HEK-293; assay type: binding; conditions: CDK11b/L2; for inhibition at 10 µM: read-out: Inhibition at 10µM (%)
# CDK20/Cyclin H = CDK20/Cyclin H (Homo sapiens, UniProt Q8IZL9); test: NanoBRET live-cell target engagement, NanoLuc-CDK20/Cyclin H in HEK-293; assay type: binding; conditions: for inhibition at 10 µM: read-out: Inhibition at 10µM (%), CDK20/H
# CDK10/Cyclin L2 [1] = biological target: T2, CDK10/Cyclin L2 (Homo sapiens, UniProt Q15131); test: cell-based
# CDK19/Cyclin C = CDK19/Cyclin C (Homo sapiens, UniProt Q9BWU1); test: NanoBRET live-cell target engagement, NanoLuc-CDK19/Cyclin C in HEK-293; conditions: for inhibition at 10 µM: read-out: Inhibition at 10µM (%), CDK19/C
# CDK10/Cyclin L2 [2] = biological target: T2, CDK10/Cyclin L2; test: NanoBRET live-cell target engagement, CDK10-NanoLuc/Cyclin L2 in HEK-293; conditions: for IC50: n=1; for inhibition at 10 µM: read-out: Inhibition at 10µM (%), CDK10/L2
# CDK1/Cyclin E1 = CDK1/Cyclin E1 (Homo sapiens, UniProt P06493); test: NanoBRET live-cell target engagement, CDK1-NanoLuc/Cyclin E1 in HEK-293; assay type: binding; conditions: CDK1/E1, 10µM
# CDK2/Cyclin E1 = CDK2/Cyclin E1 (Homo sapiens, UniProt P24941); test: NanoBRET live-cell target engagement, CDK2-NanoLuc/Cyclin E1 in HEK-293; assay type: binding; conditions: CDK2/E1, 10µM
# CDK3/Cyclin E1 = CDK3/Cyclin E1 (Homo sapiens, UniProt Q00526); test: NanoBRET live-cell target engagement, CDK3-NanoLuc/Cyclin E1 in HEK-293; assay type: binding; conditions: CDK3/E1, 10µM
# CDK4/Cyclin D1 = CDK4/Cyclin D1 (Homo sapiens, UniProt P11802); test: NanoBRET live-cell target engagement, NanoLuc-CDK4/Cyclin D1 in HEK-293; assay type: binding; conditions: CDK4/D1, 10µM
# CDK5/CDK5R1 = CDK5/CDK5R1 (Homo sapiens, UniProt Q00535); test: NanoBRET live-cell target engagement, CDK5-NanoLuc/CDK5R1 in HEK-293; assay type: binding; conditions: CDK5/CDK5R1, 10µM
# CDK6/Cyclin D1 = CDK6/Cyclin D1 (Homo sapiens, UniProt Q00534); test: NanoBRET live-cell target engagement, NanoLuc-CDK6/Cyclin D1 in HEK-293; assay type: binding; conditions: CDK6/D1, 10µM
# CDK9/Cyclin K = CDK9/Cyclin K (Homo sapiens, UniProt P50750); test: NanoBRET live-cell target engagement, NanoLuc-CDK9/Cyclin K in HEK-293; assay type: binding; conditions: CDK9/K, 10µM
# CDK12/Cyclin K = CDK12/Cyclin K (Homo sapiens, UniProt Q9NYV4); test: NanoBRET live-cell target engagement, CDK12-NanoLuc/Cyclin K in HEK-293; assay type: binding; conditions: CDK12/K, 10µM
# CDK13/Cyclin K = CDK13/Cyclin K (Homo sapiens, UniProt Q14004); test: NanoBRET live-cell target engagement, CDK13-NanoLuc/Cyclin K in HEK-293; assay type: binding; conditions: CDK13/K, 10µM
# CDK14/Cyclin Y = CDK14/Cyclin Y (Homo sapiens, UniProt O94921); test: NanoBRET live-cell target engagement, CDK14-NanoLuc/Cyclin Y in HEK-293; assay type: binding; conditions: CDK14/Y, 10µM
# CDK15/Cyclin Y = CDK15/Cyclin Y (Homo sapiens, UniProt Q96Q40); test: NanoBRET live-cell target engagement, NanoLuc-CDK15/Cyclin Y in HEK-293; assay type: binding; conditions: CDK15/Y, 10µM
# CDK16/Cyclin Y = CDK16/Cyclin Y (Homo sapiens, UniProt Q00536); test: NanoBRET live-cell target engagement, CDK16-NanoLuc/Cyclin Y in HEK-293; assay type: binding; conditions: CDK16/Y; 10µM
# CDK17/Cyclin Y = CDK17/Cyclin Y (Homo sapiens, UniProt Q00537); test: NanoBRET live-cell target engagement, CDK17-NanoLuc/Cyclin Y in HEK-293; assay type: binding; conditions: CDK17/Y, 10µM
# CDK18/Cyclin Y = CDK18/Cyclin Y (Homo sapiens, UniProt Q07002); test: NanoBRET live-cell target engagement, CDK18-NanoLuc/Cyclin Y in HEK-293; assay type: binding; conditions: CDK18/Y, 10µM
# all 21 human CDKs = test: Live-cell selectivity profile across all 21 CDK/cyclin complexes in HEK-293; assay type: binding; conditions: live cells
# Chain of CDK1/Cyclin E1 (P06493 whole entry): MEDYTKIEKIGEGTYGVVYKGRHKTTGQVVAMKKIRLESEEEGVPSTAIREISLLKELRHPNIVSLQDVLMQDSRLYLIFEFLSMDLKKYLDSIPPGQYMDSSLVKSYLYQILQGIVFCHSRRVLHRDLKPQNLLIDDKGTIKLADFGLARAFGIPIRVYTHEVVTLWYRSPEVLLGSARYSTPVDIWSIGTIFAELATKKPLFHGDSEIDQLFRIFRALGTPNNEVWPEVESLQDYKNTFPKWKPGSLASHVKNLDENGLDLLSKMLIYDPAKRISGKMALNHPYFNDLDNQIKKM
# Chain of CDK1/Cyclin E1 (P24864 whole entry partner): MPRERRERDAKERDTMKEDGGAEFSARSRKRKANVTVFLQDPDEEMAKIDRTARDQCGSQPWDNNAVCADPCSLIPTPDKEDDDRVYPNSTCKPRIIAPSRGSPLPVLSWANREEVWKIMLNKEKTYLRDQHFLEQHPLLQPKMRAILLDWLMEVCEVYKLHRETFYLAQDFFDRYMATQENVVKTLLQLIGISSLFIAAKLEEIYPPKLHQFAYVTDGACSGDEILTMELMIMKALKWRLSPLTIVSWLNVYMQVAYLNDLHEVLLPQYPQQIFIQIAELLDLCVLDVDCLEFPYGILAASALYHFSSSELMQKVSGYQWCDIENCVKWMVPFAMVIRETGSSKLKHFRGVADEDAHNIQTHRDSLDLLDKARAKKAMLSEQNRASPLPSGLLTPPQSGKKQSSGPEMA
# Chain of CDK15/Cyclin Y (Q96Q40 whole entry): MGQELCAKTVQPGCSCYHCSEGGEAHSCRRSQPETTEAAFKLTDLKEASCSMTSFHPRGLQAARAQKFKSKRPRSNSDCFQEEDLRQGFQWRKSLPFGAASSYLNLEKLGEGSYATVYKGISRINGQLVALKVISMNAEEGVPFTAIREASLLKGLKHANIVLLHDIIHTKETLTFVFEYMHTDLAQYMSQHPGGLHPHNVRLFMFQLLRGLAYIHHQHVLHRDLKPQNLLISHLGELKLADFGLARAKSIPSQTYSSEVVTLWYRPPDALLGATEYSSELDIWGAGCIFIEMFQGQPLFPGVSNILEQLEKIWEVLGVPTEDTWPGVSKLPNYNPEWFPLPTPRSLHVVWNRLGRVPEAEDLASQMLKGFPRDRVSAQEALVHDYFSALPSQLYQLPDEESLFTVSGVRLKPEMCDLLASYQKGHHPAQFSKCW
# Chain of CDK15/Cyclin Y (Q8ND76 whole entry partner): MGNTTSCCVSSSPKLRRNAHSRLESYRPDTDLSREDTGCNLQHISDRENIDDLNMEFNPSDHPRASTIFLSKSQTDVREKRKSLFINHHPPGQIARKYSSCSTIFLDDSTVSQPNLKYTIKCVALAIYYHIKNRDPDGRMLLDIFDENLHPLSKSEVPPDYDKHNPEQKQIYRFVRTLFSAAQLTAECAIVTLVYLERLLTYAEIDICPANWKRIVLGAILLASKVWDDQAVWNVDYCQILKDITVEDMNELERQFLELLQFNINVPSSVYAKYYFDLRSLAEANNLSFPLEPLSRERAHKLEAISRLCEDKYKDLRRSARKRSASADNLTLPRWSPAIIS
# Chain of CDK18/Cyclin Y (Q07002 whole entry): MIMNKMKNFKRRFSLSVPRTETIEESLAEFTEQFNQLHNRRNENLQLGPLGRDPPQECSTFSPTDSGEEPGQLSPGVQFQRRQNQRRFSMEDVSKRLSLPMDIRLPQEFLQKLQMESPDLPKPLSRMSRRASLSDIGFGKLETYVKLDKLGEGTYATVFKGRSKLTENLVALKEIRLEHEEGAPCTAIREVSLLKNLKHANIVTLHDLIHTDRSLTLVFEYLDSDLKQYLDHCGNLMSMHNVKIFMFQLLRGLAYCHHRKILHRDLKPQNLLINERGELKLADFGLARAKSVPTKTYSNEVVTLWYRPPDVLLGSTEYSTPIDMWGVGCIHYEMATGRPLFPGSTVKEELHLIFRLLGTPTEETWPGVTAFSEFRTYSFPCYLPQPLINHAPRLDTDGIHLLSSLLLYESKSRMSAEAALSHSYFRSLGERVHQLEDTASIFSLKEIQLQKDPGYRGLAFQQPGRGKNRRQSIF
# Chain of CDK18/Cyclin Y (Q8ND76 whole entry partner): as the sequence (Q8ND76 whole entry partner) above
# Chain of CDK19/Cyclin C (Q9BWU1 whole entry): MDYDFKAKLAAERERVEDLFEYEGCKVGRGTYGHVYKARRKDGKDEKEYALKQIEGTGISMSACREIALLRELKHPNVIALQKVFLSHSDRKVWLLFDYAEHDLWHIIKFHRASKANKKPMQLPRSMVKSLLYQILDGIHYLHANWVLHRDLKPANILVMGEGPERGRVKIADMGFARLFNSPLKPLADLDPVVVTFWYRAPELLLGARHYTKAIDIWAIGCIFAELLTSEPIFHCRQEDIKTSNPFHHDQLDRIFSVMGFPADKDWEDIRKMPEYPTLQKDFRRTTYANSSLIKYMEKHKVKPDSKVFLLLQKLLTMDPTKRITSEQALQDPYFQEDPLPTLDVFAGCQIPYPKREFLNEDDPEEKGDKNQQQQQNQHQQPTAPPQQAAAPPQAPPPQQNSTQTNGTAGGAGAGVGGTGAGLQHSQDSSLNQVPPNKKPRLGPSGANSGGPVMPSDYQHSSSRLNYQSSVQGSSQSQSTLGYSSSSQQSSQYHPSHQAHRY
# Chain of CDK19/Cyclin C (P24863 whole entry partner): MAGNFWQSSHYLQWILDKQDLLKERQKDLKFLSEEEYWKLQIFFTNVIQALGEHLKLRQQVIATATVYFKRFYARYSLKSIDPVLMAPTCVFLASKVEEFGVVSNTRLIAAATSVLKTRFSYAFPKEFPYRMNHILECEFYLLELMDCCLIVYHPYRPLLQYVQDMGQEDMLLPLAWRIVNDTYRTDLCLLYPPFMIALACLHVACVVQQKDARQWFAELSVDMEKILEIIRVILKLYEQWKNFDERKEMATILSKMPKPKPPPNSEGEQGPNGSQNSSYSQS
# Chain of CDK4/Cyclin D1 (P11802 whole entry): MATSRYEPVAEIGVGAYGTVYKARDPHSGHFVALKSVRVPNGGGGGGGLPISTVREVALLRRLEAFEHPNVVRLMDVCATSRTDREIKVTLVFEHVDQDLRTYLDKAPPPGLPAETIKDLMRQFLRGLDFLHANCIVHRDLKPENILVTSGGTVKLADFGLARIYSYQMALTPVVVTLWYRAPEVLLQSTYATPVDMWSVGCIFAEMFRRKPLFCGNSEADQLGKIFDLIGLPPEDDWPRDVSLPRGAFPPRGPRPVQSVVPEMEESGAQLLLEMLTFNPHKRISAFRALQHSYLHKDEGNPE
# Chain of CDK4/Cyclin D1 (P24385 whole entry partner): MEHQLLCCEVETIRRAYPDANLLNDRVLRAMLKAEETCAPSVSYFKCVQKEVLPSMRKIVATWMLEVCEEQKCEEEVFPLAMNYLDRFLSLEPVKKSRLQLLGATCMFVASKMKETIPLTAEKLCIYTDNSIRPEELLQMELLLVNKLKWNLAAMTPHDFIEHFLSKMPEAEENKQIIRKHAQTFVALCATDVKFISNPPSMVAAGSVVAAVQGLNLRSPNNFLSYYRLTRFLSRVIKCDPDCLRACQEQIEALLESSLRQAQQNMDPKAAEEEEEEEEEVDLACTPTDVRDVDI
# Chain of CDK7 (P50613 whole entry): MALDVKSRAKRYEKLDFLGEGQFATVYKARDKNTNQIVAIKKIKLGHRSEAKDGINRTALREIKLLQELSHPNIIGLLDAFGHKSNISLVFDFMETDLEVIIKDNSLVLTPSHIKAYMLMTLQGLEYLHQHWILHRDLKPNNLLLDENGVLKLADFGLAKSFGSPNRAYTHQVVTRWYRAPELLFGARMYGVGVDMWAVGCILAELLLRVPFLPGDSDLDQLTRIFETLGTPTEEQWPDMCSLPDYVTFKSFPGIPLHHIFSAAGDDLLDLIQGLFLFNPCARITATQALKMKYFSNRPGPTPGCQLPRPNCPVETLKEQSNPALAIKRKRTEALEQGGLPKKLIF
# Chain of CDK20/Cyclin H (Q8IZL9 whole entry): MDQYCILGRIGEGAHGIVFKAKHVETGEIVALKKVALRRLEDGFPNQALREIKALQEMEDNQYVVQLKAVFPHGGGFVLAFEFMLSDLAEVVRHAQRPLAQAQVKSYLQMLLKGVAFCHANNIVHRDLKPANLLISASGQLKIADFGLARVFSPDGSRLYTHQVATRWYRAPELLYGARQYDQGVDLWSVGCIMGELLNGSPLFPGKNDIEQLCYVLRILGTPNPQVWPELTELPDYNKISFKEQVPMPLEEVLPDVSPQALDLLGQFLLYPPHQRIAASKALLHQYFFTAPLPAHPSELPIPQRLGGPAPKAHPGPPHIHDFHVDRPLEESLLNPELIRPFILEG
# Chain of CDK20/Cyclin H (P51946 whole entry partner): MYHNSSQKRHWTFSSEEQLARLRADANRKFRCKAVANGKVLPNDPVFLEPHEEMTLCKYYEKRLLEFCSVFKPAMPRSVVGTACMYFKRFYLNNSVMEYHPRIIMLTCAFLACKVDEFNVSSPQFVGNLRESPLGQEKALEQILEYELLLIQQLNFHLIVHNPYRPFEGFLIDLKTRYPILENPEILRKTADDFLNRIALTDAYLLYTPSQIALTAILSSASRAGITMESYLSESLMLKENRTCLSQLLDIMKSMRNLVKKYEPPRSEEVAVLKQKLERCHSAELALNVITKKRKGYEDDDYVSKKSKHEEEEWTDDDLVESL
# T2 sequence (Q15131 whole entry): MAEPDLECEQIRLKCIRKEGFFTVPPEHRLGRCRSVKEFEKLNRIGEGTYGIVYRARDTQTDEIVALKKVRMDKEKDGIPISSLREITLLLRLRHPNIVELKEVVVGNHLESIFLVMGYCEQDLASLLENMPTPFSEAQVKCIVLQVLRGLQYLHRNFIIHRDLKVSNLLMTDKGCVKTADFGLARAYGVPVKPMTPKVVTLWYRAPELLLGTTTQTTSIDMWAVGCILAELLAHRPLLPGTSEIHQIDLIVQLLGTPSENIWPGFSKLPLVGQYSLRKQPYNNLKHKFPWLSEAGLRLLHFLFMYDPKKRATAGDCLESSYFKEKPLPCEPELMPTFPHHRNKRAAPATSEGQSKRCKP
compound,measurement,setting,value
CCc1cnn2c(NCc3ccc[n+]([O-])c3)cc(N3CCCC[C@H]3CCO)nc12 [Dinaciclib],inhibition at 10 µM,"CDK7; CDK7, experiment 1, read-out: Inhibition at 10µM (%)",94.8%
same,inhibition at 10 µM,"CDK7; CDK7, experiment 2, read-out: Inhibition at 10µM (%)",91.5%
same,inhibition at 10 µM,"CDK7; read-out: Inhibition at 10µM (%), CDK7, average",93.1%
same,inhibition at 10 µM,CDK8/Cyclin C; average,24.5%
same,inhibition at 10 µM,CDK8/Cyclin C; experiment 1,40.6%
same,inhibition at 10 µM,CDK8/Cyclin C; experiment 2,8.4%
same,inhibition at 10 µM,CDK11A/Cyclin L2; average,33%
same,inhibition at 10 µM,CDK11A/Cyclin L2; experiment 1,36%
same,inhibition at 10 µM,CDK11A/Cyclin L2; experiment 2,29.9%
same,inhibition at 10 µM,CDK11B/Cyclin L2; average,45.5%
same,inhibition at 10 µM,CDK11B/Cyclin L2; experiment 1,46.1%
same,inhibition at 10 µM,CDK11B/Cyclin L2; experiment 2,45%
same,inhibition at 10 µM,CDK20/Cyclin H; experiment 1,71.7%
same,inhibition at 10 µM,CDK20/Cyclin H; experiment 2,78%
same,IC50,CDK10/Cyclin L2 [1],720 nM
same,inhibition at 10 µM,CDK19/Cyclin C; average,35.5%
same,inhibition at 10 µM,CDK19/Cyclin C; experiment 1,46.2%
same,inhibition at 10 µM,CDK19/Cyclin C; experiment 2,24.7%
same,IC50,"CDK10/Cyclin L2 [2]; IC50, [Probe 1] 0.5 µM",850 nM
same,IC50,"CDK10/Cyclin L2 [2]; IC50, [Probe 1] 1 µM",740 nM
same,inhibition at 10 µM,CDK10/Cyclin L2 [2]; average,74.8%
same,inhibition at 10 µM,CDK10/Cyclin L2 [2]; experiment 1,77.5%
same,inhibition at 10 µM,CDK10/Cyclin L2 [2]; experiment 2,72.2%
O=C(Nc1c[nH]nc1-c1ccccn1)c1nn(C2CCNCC2)cc1Cl [BDP5290],Inhibition at 10µM (%) Replicate 1,CDK1/Cyclin E1,19.1%
same,Inhibition at 10µM (%) Replicate 2,CDK1/Cyclin E1,12.1%
same,Inhibition at 10µM (%) Average,CDK1/Cyclin E1; average of replicates,15.6%
same,Inhibition at 10µM (%) Replicate 1,CDK2/Cyclin E1,-7.9%
same,Inhibition at 10µM (%) Replicate 2,CDK2/Cyclin E1,7.7%
same,Inhibition at 10µM (%) Average,CDK2/Cyclin E1; average of replicates,-0.109%
same,Inhibition at 10µM (%) Replicate 1,CDK3/Cyclin E1,4.4%
same,Inhibition at 10µM (%) Replicate 2,CDK3/Cyclin E1,3.4%
same,Inhibition at 10µM (%) Average,CDK3/Cyclin E1; average of replicates,3.9%
same,Inhibition at 10µM (%) Replicate 1,CDK4/Cyclin D1,13.2%
same,Inhibition at 10µM (%) Replicate 2,CDK4/Cyclin D1,14.4%
same,Inhibition at 10µM (%) Average,CDK4/Cyclin D1; average of replicates,13.8%
same,Inhibition at 10µM (%) Replicate 1,CDK5/CDK5R1,7.9%
same,Inhibition at 10µM (%) Replicate 2,CDK5/CDK5R1,-3.3%
same,Inhibition at 10µM (%) Average,CDK5/CDK5R1; average of replicates,2.3%
same,Inhibition at 10µM (%) Replicate 1,CDK6/Cyclin D1,5.5%
same,Inhibition at 10µM (%) Replicate 2,CDK6/Cyclin D1,5.4%
same,Inhibition at 10µM (%) Average,CDK6/Cyclin D1; average of replicates,5.5%
same,Inhibition at 10µM (%) Replicate 1,"CDK7; CDK7, 10µM",9.8%
same,Inhibition at 10µM (%) Replicate 2,"CDK7; CDK7, 10µM",16.0%
same,Inhibition at 10µM (%) Average,"CDK7; CDK7, 10µM, average of replicates",12.9%
same,Inhibition at 10µM (%) Replicate 1,CDK8/Cyclin C; 10µM,6.1%
same,Inhibition at 10µM (%) Replicate 2,CDK8/Cyclin C; 10µM,-10.6%
same,Inhibition at 10µM (%) Average,"CDK8/Cyclin C; 10µM, average of replicates",-2.2%
same,Inhibition at 10µM (%) Replicate 1,CDK9/Cyclin K,12.5%
same,Inhibition at 10µM (%) Replicate 2,CDK9/Cyclin K,29.1%
same,Inhibition at 10µM (%) Average,CDK9/Cyclin K; average of replicates,20.8%
same,Inhibition at 10µM (%) Replicate 1,CDK11A/Cyclin L2; 10µM,-5.6%
same,Inhibition at 10µM (%) Replicate 2,CDK11A/Cyclin L2; 10µM,5.6%
same,Inhibition at 10µM (%) Average,"CDK11A/Cyclin L2; 10µM, average of replicates",-0.00201%
same,Inhibition at 10µM (%) Replicate 1,CDK11B/Cyclin L2; 10µM,8.9%
same,Inhibition at 10µM (%) Replicate 2,CDK11B/Cyclin L2; 10µM,-3.2%
same,Inhibition at 10µM (%) Average,"CDK11B/Cyclin L2; 10µM, average of replicates",2.8%
same,Inhibition at 10µM (%) Replicate 1,CDK12/Cyclin K,6.2%
same,Inhibition at 10µM (%) Replicate 2,CDK12/Cyclin K,-2.0%
same,Inhibition at 10µM (%) Average,CDK12/Cyclin K; average of replicates,2.1%
same,Inhibition at 10µM (%) Replicate 1,CDK13/Cyclin K,3.0%
same,Inhibition at 10µM (%) Replicate 2,CDK13/Cyclin K,-9.6%
same,Inhibition at 10µM (%) Average,CDK13/Cyclin K; average of replicates,-3.3%
same,Inhibition at 10µM (%) Replicate 1,CDK14/Cyclin Y,-4.4%
same,Inhibition at 10µM (%) Replicate 2,CDK14/Cyclin Y,-10.4%
same,Inhibition at 10µM (%) Average,CDK14/Cyclin Y; average of replicates,-7.4%
same,Inhibition at 10µM (%) Replicate 1,CDK15/Cyclin Y,8.0%
same,Inhibition at 10µM (%) Replicate 2,CDK15/Cyclin Y,6.5%
same,Inhibition at 10µM (%) Average,CDK15/Cyclin Y; average of replicates,7.2%
same,Inhibition at 10µM (%) Replicate 1,CDK16/Cyclin Y,4.2%
same,Inhibition at 10µM (%) Replicate 2,CDK16/Cyclin Y,-9.2%
same,Inhibition at 10µM (%) Replicate 1,CDK17/Cyclin Y,0.247%
same,Inhibition at 10µM (%) Replicate 2,CDK17/Cyclin Y,1.8%
same,Inhibition at 10µM (%) Average,CDK17/Cyclin Y; average of replicates,1.0%
same,Inhibition at 10µM (%) Replicate 1,CDK18/Cyclin Y,16.5%
same,Inhibition at 10µM (%) Replicate 2,CDK18/Cyclin Y,10.0%
same,Inhibition at 10µM (%) Average,CDK18/Cyclin Y; average of replicates,13.2%
same,Inhibition at 10µM (%) Replicate 1,"CDK20/Cyclin H; CDK20/H, 10µM",14.8%
same,Inhibition at 10µM (%) Replicate 2,"CDK20/Cyclin H; CDK20/H, 10µM",26.9%
same,engagement of CDKs at concentrations up to 10μM,all 21 human CDKs,only weakly engaged
same,Inhibition at 10µM (%) Replicate 1,"CDK19/Cyclin C; CDK19/C, 10µM",12.8%
same,Inhibition at 10µM (%) Replicate 2,"CDK19/Cyclin C; CDK19/C, 10µM",-7.7%
same,Inhibition at 10µM (%) Average,"CDK19/Cyclin C; CDK19/C, 10µM, average of replicates",2.6%
same,Inhibition at 10µM (%) Replicate 1,"CDK10/Cyclin L2 [2]; CDK10/L2, 10µM",1.9%
same,Inhibition at 10µM (%) Replicate 2,"CDK10/Cyclin L2 [2]; CDK10/L2, 10µM",8.8%
same,Inhibition at 10µM (%) Average,"CDK10/Cyclin L2 [2]; CDK10/L2, 10µM, average of replicates",5.4%
